Read-outs that look alike come from different tables or passages of the source.
How the values were obtained:
[1] = Reactive oxygen species (ROS) assay, photoreactivity testing; type: physicochemical
Text: This assay was established to monitor the generation of ROS, such as singlet oxygen and superoxide, from photoirradiated chemicals, and ROS generation would be indicative of the photochemical reactivity of tested chemicals.
In contrast, 8-methoxypsoralen (MOP) is known as a phototoxic and photoreactive chemical. Although 8-MOP slightly exceeded pirfenidone in ROS generation, both chemicals were identified to be photoreactive, as shown in FIG. 3 (A). When such photoreactivity and photoirritability are taken into consideration, pirfenidone can be said to raise concerns about photostability.

[2] = tested on: skin; assay: Phototoxic reaction in oral administration of pirfenidone (skin color, color difference meter); type: in vivo, rats; settings: for change of skin color compared to the control group: black light irradiation
Method: Hair of rats were carefully shaved by hair clipper, and pirfenidone was administered orally to the rats (160 mg/kg or 30 mg/kg), and the rats were irradiated with a black light. Colors of the skin before and after the light irradiation were evaluated with a color difference meter.

[3] = Pharmacokinetics 2: transmigration of pirfenidone to tissue after single-dose administration; parameters: species or system rats; settings: rat, in vivo, po, 160 mg/kg
Method: Similarly to Example 5, single-dose administrations of pirfenidone orally and the formulation 1 by inhalation were performed in rats, and the amount of transmigration of pirfenidone to each tissue was monitored by UPLC/ESI-MS. When compared in dose (160 mg/kg) having an anti-inflammatory activity, while the amount of skin-transmigration of pirfenidone in 1 hour after administration was about 50 ng/g-tissue via inhalation (1 mg/kg), the amount via oral administration (160 mg/kg) was about 20 μg/g-tissue. From this, while the amount of medication in inhalation is 1/160 in the case of oral administration, the amount of skin transmigration in inhalation decreases to 1/400 of oral formulation. […] Thus, the respirable formulation of the present invention has an excellent effect.

[4] = patients who have taken the oral agent; cited from earlier work
[5] = Pharmacokinetics (3): skin transmigration in repeated-dose administrations; type: in vivo
Method: Results of having monitored the amount of skin transmigration of pirfenidone in repeated-dose administrations by oral and inhalation are shown in FIG. 8. Although a temporary elevation of the pirfenidone concentration in the skin was observed by pirfenidone oral administration (30, 160 mg/kg) also in repeated-dose administrations in every 12 hours, the elevation disappeared in about 6 hours after administration. […] From this, the systemic side effect is considered to be avoidable even when the respirable formulation is used repeatedly.

[6] = Photostability testing; type: physicochemical; settings: simulated sunlight (250 W/m^2)
Method: Here, in respirable formulation of pirfenidone, both liquid and dry powder formulations can be considered in theory. Then, to clarify the photochemical properties in more detail, photostability testing was carried out. […] In general, photosensitive chemicals in a solution state are far more prone to photodegradation than solid samples due to the high permeability of light and increased mobility of photochemically excited molecules and reactive species. From this, taken together with the result shown in FIG. 3 (B), dry powder formulation, rather than liquid formulation, is preferable as a respirable formulation of pirfenidone.

[7] = Pharmacokinetics (1): plasma and tissues after oral and intratracheal administration; type: in vivo, rats; settings: for Cmax / MRT / half-life / AUC(0-inf): rat
Method: However, the possibility of risk reduction of photodermatosis is not clear. In general, since drug-induced photodermatosis appear in the skin and eyes, the specific distribution of drug molecules in the skin and/or eyes could be a key consideration for evaluating the photodermatosis risk. Then, in order to verify the photosafety of the formulation 1, a pharmacokinetic study was undertaken after intratracheal administration of the formulation 1 at a pharmacologically effective dose (1 mg/kg). Additionally, since in the oral administration, both pharmaceutically effective and phototoxic dose (160 mg/kg) and pharmaceutically non-effective and non-phototoxic dose (30 mg/kg) are known, pharmacokinetic parameters were obtained after oral administration at both doses. Concentration-time curves of pirfenidone in the plasma, skin, lung, and eyes were obtained by UPLC/ESI-MS analysis after intratracheal and oral administrations. After oral administration of pirfenidone, plasma and lung concentrations of pirfenidone immediately reached the Cmax within 5 min and these concentrations decreased steadily with half lives of ca. 0.3-0.8 h.

[8] = 30 mg/kg oral, UV +, after treatment
[9] = 30 mg/kg oral, UV +, initial value
[10] = 30 mg/kg oral, UV −, after treatment
[11] = 30 mg/kg oral, UV −, initial value
[12] = 160 mg/kg oral, UV +, after treatment
[13] = 160 mg/kg oral, UV +, initial value
[14] = 160 mg/kg oral, UV −, after treatment
[15] = 160 mg/kg oral, UV −, initial value

COc1c2occc2cc2ccc(=O)oc12 [Formulation 8-MOP, 8-methoxypsoralen]
ROS generation (singlet oxygen, superoxide), photoreactivity ([1]; exposed to simulated sunlight (250 W/m^2)): photoreactive

COc1cc(O)c(C(=O)c2ccccc2)cc1S(=O)(=O)O [Sulisobenzone, sulisobenzone]
ROS generation (singlet oxygen, superoxide), photoreactivity [1]: no ability to generate ROS

Cc1ccc(=O)n(-c2ccccc2)c1 [pirfenidone]
ΔE, evaluation of color change ([2]; 30 mg/kg oral, UV +): 2.40 ± 0.20
L* [2, 8]: 72.26
a* [2, 8]: 2.81
b* [2, 8]: 5.72
L* [2, 9]: 72.90
a* [2, 9]: 1.27
b* [2, 9]: 4.14
ΔE, evaluation of color change ([2]; 30 mg/kg oral, UV −): 1.47 ± 0.27
L* [2, 10]: 71.56
a* [2, 10]: 1.54
b* [2, 10]: −0.36
L* [2, 11]: 70.16
a* [2, 11]: 1.19
b* [2, 11]: −0.18
change of skin color compared to the control group ([2]; 30 mg/kg oral): significant change was not observed
photodermatosis ([2]; 30 mg/kg orally to rat): photodermatosis was not caused
ΔE, evaluation of color change ([2]; 160 mg/kg oral, UV +): 3.97 ± 0.59
L* [2, 12]: 72.35
a* [2, 12]: 2.06
b* [2, 12]: 9.17
L* [2, 13]: 71.05
a* [2, 13]: 0.89
b* [2, 13]: 5.67
ΔE, evaluation of color change ([2]; 160 mg/kg oral, UV −): 1.69 ± 0.24
L* [2, 14]: 71.04
a* [2, 14]: −1.04
b* [2, 14]: 4.88
L* [2, 15]: 70.59
a* [2, 15]: 0.09
b* [2, 15]: 3.67
change of skin color compared to the control group ([2]; 160 mg/kg oral): Change of skin color was intentionally observed
ROS generation (singlet oxygen, superoxide), photoreactivity [1]: photoreactive
concentration at 1 h [3]: ~20000 ng/g
expression frequency of drug-induced photodermatosis [4]: about 60%
time after administration at which the elevation of skin concentration disappeared ([5]; oral 30, 160 mg/kg, repeated-dose every 12 hours): about 6 hours
accumulation in skin ([5]; oral, repeated-dose administrations): did not show any accumulation trend
degradation ([6]; powder): no significant degradation
apparent first-order degradation rate ([6]; solution): 0.31 ± 0.03 h⁻¹
AUC0→∞ ([7]; eyes, rats, 30 mg/kg, p.o.): 8.33 ± 0.39 h · μg/g tissue
AUC0→∞ ([7]; eyes, rats, 160 mg/kg, p.o.): 58.8 ± 1.3 h · μg/g tissue
AUC0→∞ ([7]; lung, rats, 30 mg/kg, p.o.): 6.45 ± 0.43 h · μg/g tissue
AUC0→∞ ([7]; lung, rats, 160 mg/kg, p.o.): 52.1 ± 1.0 h · μg/g tissue
Cmax ([7]; po, eyes, rats, 30 mg/kg): 3950 ± 300 ng/g
MRT ([7]; po, eyes, rats, 30 mg/kg): 1.06 ± 0.13 h
half-life ([7]; po, eyes, rats, 30 mg/kg, p.o., read-out: t1/2 (converted)): 0.668 ± 0.18 h
Cmax ([7]; po, eyes, rats, 160 mg/kg): 26000 ± 2600 ng/g
MRT ([7]; po, eyes, rats, 160 mg/kg): 1.93 ± 0.051 h
half-life ([7]; po, eyes, rats, 160 mg/kg, p.o., read-out: t1/2 (converted)): 1.06 ± 0.27 h
Cmax ([7]; po, lung, rats, 30 mg/kg): 6460 ± 690 ng/g
MRT ([7]; po, lung, rats, 30 mg/kg): 0.787 ± 0.16 h
half-life ([7]; po, lung, rats, 30 mg/kg, p.o., read-out: t1/2 (converted)): 0.799 ± 0.24 h
Cmax ([7]; po, lung, rats, 160 mg/kg): 37600 ± 5700 ng/g
MRT ([7]; po, lung, rats, 160 mg/kg): 1.32 ± 0.041 h
half-life ([7]; po, lung, rats, 160 mg/kg, p.o., read-out: t1/2 (converted)): 0.766 ± 0.16 h
AUC(0-inf) ([7]; po, plasma, rats, 30 mg/kg): 14100 ± 920 ng·h/mL
Cmax ([7]; po, plasma, rats, 30 mg/kg): 19.7 ± 0.93 µg/mL
MRT ([7]; po, plasma, rats, 30 mg/kg): 0.667 ± 0.094 h
half-life ([7]; po, plasma, rats, 30 mg/kg, p.o., read-out: t1/2 (converted)): 0.33 ± 0.02 h
AUC(0-inf) ([7]; po, plasma, rats, 160 mg/kg): 152000 ± 10000 ng·h/mL
Cmax ([7]; po, plasma, rats, 160 mg/kg): 135 ± 11 µg/mL
MRT ([7]; po, plasma, rats, 160 mg/kg): 1.05 ± 0.075 h
half-life ([7]; po, plasma, rats, 160 mg/kg, p.o., read-out: t1/2 (converted)): 0.53 ± 0.03 h
Cmax ([7]; po, skin, rats, 30 mg/kg): 8160 ± 470 ng/g
MRT ([7]; po, skin, rats, 30 mg/kg): 1.14 ± 0.12 h
half-life ([7]; po, skin, rats, 30 mg/kg, p.o., read-out: t1/2 (converted)): 1.07 ± 0.28 h
Cmax ([7]; po, skin, rats, 160 mg/kg): 32900 ± 2600 ng/g
MRT ([7]; po, skin, rats, 160 mg/kg): 1.7 ± 0.043 h
half-life ([7]; po, skin, rats, 160 mg/kg, p.o., read-out: t1/2 (converted)): 1.06 ± 0.24 h
half-life ([7]; plasma and lung, oral administration (30 and 160 mg/kg), read-out: half lives): 0.3 to 0.8 h
half-life ([7]; skin and eye, after oral dosing, read-out: half-life of elimination phase): 0.7 to 1.1 h
time of reaching maximum levels ([7]; skin and eye, after oral dosing): ca. 0.5 h
AUC0→∞ ([7]; skin, rats, 30 mg/kg, p.o.): 11.5 ± 0.51 h · μg/g tissue
AUC0→∞ ([7]; skin, rats, 160 mg/kg, p.o.): 68.0 ± 1.4 h · μg/g tissue

From patent US9517204B2, “Pharmaceutical composition for inhalation” (SHIONOGI & CO., LTD., priority 2011, dated 2016)
